Target: T1, Zcchc11 enzyme (Homo sapiens, UniProt Q5TAX3)
T1 construct: made in house; host or cells: HEK293 cells (Zcchc11); E. coli Rosetta II (LIN28A)
T1 sequence (Q5TAX3 212-1420): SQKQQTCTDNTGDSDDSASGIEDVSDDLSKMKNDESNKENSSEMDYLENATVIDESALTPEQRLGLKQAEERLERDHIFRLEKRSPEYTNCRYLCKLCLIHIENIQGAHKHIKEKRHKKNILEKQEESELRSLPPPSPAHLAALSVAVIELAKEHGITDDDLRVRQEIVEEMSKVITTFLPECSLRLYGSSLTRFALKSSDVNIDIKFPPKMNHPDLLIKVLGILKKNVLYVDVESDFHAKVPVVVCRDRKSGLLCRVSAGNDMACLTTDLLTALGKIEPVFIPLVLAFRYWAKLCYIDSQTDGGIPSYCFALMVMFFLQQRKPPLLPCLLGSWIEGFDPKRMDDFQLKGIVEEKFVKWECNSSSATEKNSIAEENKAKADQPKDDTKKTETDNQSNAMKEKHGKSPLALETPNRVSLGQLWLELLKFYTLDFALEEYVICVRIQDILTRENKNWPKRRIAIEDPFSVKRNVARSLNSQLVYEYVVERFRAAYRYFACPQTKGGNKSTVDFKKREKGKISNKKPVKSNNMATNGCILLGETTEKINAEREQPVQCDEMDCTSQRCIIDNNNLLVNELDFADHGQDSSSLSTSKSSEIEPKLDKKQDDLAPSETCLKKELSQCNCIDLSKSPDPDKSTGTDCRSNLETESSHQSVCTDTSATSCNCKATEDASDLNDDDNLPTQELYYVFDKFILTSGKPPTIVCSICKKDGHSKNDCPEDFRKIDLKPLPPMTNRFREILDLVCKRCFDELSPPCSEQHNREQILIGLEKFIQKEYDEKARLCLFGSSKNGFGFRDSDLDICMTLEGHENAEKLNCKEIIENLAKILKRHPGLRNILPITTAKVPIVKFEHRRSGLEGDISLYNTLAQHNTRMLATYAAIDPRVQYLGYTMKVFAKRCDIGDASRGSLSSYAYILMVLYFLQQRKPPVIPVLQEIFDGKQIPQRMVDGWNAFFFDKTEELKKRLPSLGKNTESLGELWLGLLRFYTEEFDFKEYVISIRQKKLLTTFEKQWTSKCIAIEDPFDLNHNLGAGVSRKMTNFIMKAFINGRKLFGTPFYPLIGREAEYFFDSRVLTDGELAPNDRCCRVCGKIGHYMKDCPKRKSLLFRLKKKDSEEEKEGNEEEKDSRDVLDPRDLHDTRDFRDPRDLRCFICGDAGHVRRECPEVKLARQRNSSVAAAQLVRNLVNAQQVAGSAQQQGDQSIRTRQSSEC
Experiment: TUTase assay (Zcchc11 assay, Lin28a-dependent polyuridylation of pre-let-7)
Type: biochemical
Details: Lin28a-dependent Zcchc11 (Z11) TUTase assay; read-out: Potency Lin28a-dep Z11 IC50
How it was run: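 LIN28A (10 nM) in pH 7.3 HEPES/KCl/MgCl2/DTT buffer was mixed with serially diluted compound, then 0.2 nM truncated human Zcchc11 and 2 nM labeled pre-let-7 were added for 30 min at room temperature. UTP (5 uM) and quench probe (4 nM) then started the reaction. Linear early rates gave IC50 values.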

Row | Structure (SMILES) | IC50
1 | COc1ccnc(OC[C@@H]2CCCN2c2cc3c(cc2Cl)c(=O)c(C(=O)O)cn3-c2ccc(N3CC(N(C)C)C3)nc2)c1Cl [Example 668, (S)-6-chloro-7-(2-(((3-chloro-4-methoxypyridin-2-yl)oxy)methyl)pyrrolidin-1-yl)-1-(6-(3-(dimethylamino)azetidin-1-yl)pyridin-3-yl)-4-oxo-1,4-dihydroquinoline-3-carboxylic acid] | ≤ 1 µM
2 | CO[C@H]1CCN(c2cc3c(cc2Cl)c(=O)c(C(=O)O)cn3-c2ccc(N3CC(N(C)C)C3)nc2)[C@H]1COc1ncccc1Cl [Example 669, 6-chloro-7-((2S,3S)-2-(((3-chloropyridin-2-yl)oxy)methyl)-3-methoxypyrrolidin-1-yl)-1-(6-(3-(dimethylamino)azetidin-1-yl)pyridin-3-yl)-4-oxo-1,4-dihydroquinoline-3-carboxylic acid] | ≤ 1 µM
3 | CN(C)C1CN(c2ccc(-n3cc(C(=O)O)c(=O)c4cc(F)c(N5CCC[C@H]5COc5ncccc5Cl)cc43)cn2)C1 [Example 670, (S)-7-(2-(((3-chloropyridin-2-yl)oxy)methyl)pyrrolidin-1-yl)-1-(6-(3-(dimethylamino)azetidin-1-yl)pyridin-3-yl)-6-fluoro-4-oxo-1,4-dihydroquinoline-3-carboxylic acid] | 1 to 10 µM
4 | CN(C)C1CN(c2ccc(-n3cc(C(=O)O)c(=O)c4cc(F)c(N5CC[C@@H](F)[C@@H]5COc5ncccc5Cl)cc43)cn2)C1 [Example 671, 7-((2S,3R)-2-(((3-chloropyridin-2-yl)oxy)methyl)-3-fluoropyrrolidin-1-yl)-1-(6-(3-(dimethylamino)azetidin-1-yl)pyridin-3-yl)-6-fluoro-4-oxo-1,4-dihydroquinoline-3-carboxylic acid] | ≤ 1 µM
5 | CN(C)C1CN(c2ccc(-n3cc(C(=O)O)c(=O)c4cc(Cl)c(N5[C@@H](COc6nc(OC7CC7)ccc6Cl)C[C@H]6C[C@H]65)cc43)cn2)C1 [Example 672, 6-chloro-7-((1R,3R,5R)-3-(((3-chloro-6-cyclopropoxy-pyridin-2-yl)oxy)methyl)-2-azabicyclo[3.1.0]hexan-2-yl)-1-(6-(3-(dimethylamino)azetidin-1-yl)pyridin-3-yl)-4-oxo-1,4-dihydroquinoline-3-carboxylic acid] | ≤ 1 µM
6 | COc1ccnc(OC[C@H]2C[C@H]3C[C@H]3N2c2cc3c(cc2F)c(=O)c(C(=O)O)cn3-c2ccc(N3CC(N(C)C)C3)nc2)c1Cl [Example 673, 7-((1R,3R,5R)-3-(((3-chloro-4-methoxypyridin-2-yl)oxy)methyl)-2-azabicyclo[3.1.0]hexan-2-yl)-1-(6-(3-(dimethylamino)azetidin-1-yl)pyridin-3-yl)-6-fluoro-4-oxo-1,4-dihydroquinoline-3-carboxylic acid] | ≤ 1 µM
7 | COc1ccnc(OC[C@H]2C[C@H]3C[C@H]3N2c2cc3c(cc2Cl)c(=O)c(C(=O)O)cn3-c2ccc(N3CC(N(C)C)C3)nc2)c1Cl [Example 674, 6-chloro-7-((1R,3R,5R)-3-(((3-chloro-4-methoxypyridin-2-yl)oxy)methyl)-2-azabicyclo[3.1.0]hexan-2-yl)-1-(6-(3-(dimethylamino)azetidin-1-yl)pyridin-3-yl)-4-oxo-1,4-dihydroquinoline-3-carboxylic acid] | ≤ 1 µM
8 | CN(C)C1CN(c2ccc(-n3cc(C(=O)O)c(=O)c4cc(Cl)c(N5CC6(CC6)C[C@@H]5COc5nc(OC6CC6)ccc5Cl)cc43)cn2)C1 [Example 675, (R)-6-chloro-7-(6-(((3-chloro-6-cyclopropoxy-pyridin-2-yl)oxy)methyl)-5-azaspiro[2.4]heptan-5-yl)-1-(6-(3-(dimethylamino)azetidin-1-yl)pyridin-3-yl)-4-oxo-1,4-dihydroquinoline-3-carboxylic acid] | ≤ 1 µM
9 | COc1ccc(C)c(OC[C@H]2C[C@H]3C[C@H]3N2c2cc3c(cc2Cl)c(=O)c(C(=O)O)cn3-c2ccc(N3CC(N(C)C)C3)nc2)n1 [Example 676, 6-chloro-1-(6-(3-(dimethylamino)azetidin-1-yl)pyridin-3-yl)-7-((1R,3R,5R)-3-(((6-methoxy-3-methylpyridin-2-yl)oxy)methyl)-2-azabicyclo[3.1.0]hexan-2-yl)-4-oxo-1,4-dihydroquinoline-3-carboxylic acid] | ≤ 1 µM
10 | COc1ccc(Cl)c(OC[C@H]2C[C@H]3C[C@H]3N2c2nc3c(cc2Cl)c(=O)c(C(=O)O)cn3-c2ccc(N3CC(N(C)C)C3)nc2)n1 [Example 677, 6-chloro-7-((1R,3R,5R)-3-(((3-chloro-6-methoxypyridin-2-yl)oxy)methyl)-2-azabicyclo[3.1.0]hexan-2-yl)-1-(6-(3-(dimethylamino)azetidin-1-yl)pyridin-3-yl)-4-oxo-1,4-dihydro-1,8-naphthyridine-3-carboxylic aci] | ≤ 1 µM
11 | COc1ccnc(OC[C@H]2C[C@H]3C[C@H]3N2c2nc3c(cc2F)c(=O)c(C(=O)O)cn3-c2ccc(N3CC(N(C)C)C3)nc2)c1Cl [Example 678, 7-((1R,3R,5R)-3-(((3-chloro-4-methoxypyridin-2-yl)oxy)methyl)-2-azabicyclo[3.1.0]hexan-2-yl)-1-(6-(3-(dimethylamino)azetidin-1-yl)pyridin-3-yl)-6-fluoro-4-oxo-1,4-dihydro-1,8-naphthyridine-3-carboxylic acid] | ≤ 1 µM

Next, values leading:

Row | IC50 | Structure (SMILES)
12 | ≤ 1 µM | COc1cnc(OC[C@H]2C[C@H]3C[C@H]3N2c2cc3c(cc2Cl)c(=O)c(C(=O)O)cn3-c2ccc(N3CC(N(C)C)C3)nc2)c(Cl)c1 [Example 662, 6-chloro-7-((1R,3R,5R)-3-(((3-chloro-5-methoxypyridin-2-yl)oxy)methyl)-2-azabicyclo[3.1.0]hexan-2-yl)-1-(6-(3-(dimethylamino)azetidin-1-yl)pyridin-3-yl)-4-oxo-1,4-dihydroquinoline-3-carboxylic acid]
13 | ≤ 1 µM | COc1ccc(Cl)c(OC[C@H]2CC3(CC3)CN2c2cc3c(cc2Cl)c(=O)c(C(=O)O)cn3-c2ccc(N3CC(N(C)C)C3)nc2)n1 [Example 663, (R)-6-chloro-7-(6-(((3-chloro-6-methoxypyridin-2-yl)oxy)methyl)-5-azaspiro[2.4]heptan-5-yl)-1-(6-(3-(dimethylamino)azetidin-1-yl)pyridin-3-yl)-4-oxo-1,4-dihydroquinoline-3-carboxylic acid]
14 | ≤ 1 µM | CN(C)C1CN(c2ccc(-n3cc(C(=O)O)c(=O)c4cc(Cl)c(N5CC[C@@H](F)[C@@H]5COc5ncccc5Cl)cc43)cn2)C1 [Example 664, 6-chloro-7-((2S,3R)-2-(((3-chloropyridin-2-yl)oxy)methyl)-3-fluoropyrrolidin-1-yl)-1-(6-(3-(dimethylamino)azetidin-1-yl)pyridin-3-yl)-4-oxo-1,4-dihydroquinoline-3-carboxylic acid]
15 | ≤ 1 µM | CN(C)c1ccc(Cl)c(OC[C@H]2CC3CC3N2c2cc3c(cc2Cl)c(=O)c(C(=O)O)cn3-c2ccc(N3CC(N(C)C)C3)nc2)n1 (stereo partly drawn) [Example 665, 6-chloro-7-((3R)-3-(((3-chloro-6-(dimethylamino)pyridin-2-yl)oxy)methyl)-2-azabicyclo[3.1.0]hexan-2-yl)-1-(6-(3-(dimethylamino)azetidin-1-yl)pyridin-3-yl)-4-oxo-1,4-dihydroquinoline-3-carboxylic acid]
16 | ≤ 1 µM | CN(C)C1CN(c2ccc(-n3cc(C(=O)O)c(=O)c4cc(Cl)c(N5CCC[C@H]5COc5ncccc5Cl)cc43)cn2)C1 [Example 666, (S)-6-chloro-7-(2-(((3-chloropyridin-2-yl)oxy)methyl)pyrrolidin-1-yl)-1-(6-(3-(dimethylamino)azetidin-1-yl)pyridin-3-yl)-4-oxo-1,4-dihydroquinoline-3-carboxylic acid]
17 | ≤ 1 µM | CN(C)C1CN(c2ccc(-n3cc(C(=O)O)c(=O)c4cc(Cl)c(N5CC[C@H](O)[C@@H]5COc5ncccc5Cl)cc43)cn2)C1 [Example 667, 6-chloro-7-((2S,3S)-2-(((3-chloropyridin-2-yl)oxy)methyl)-3-hydroxypyrrolidin-1-yl)-1-(6-(3-(dimethylamino)azetidin-1-yl)pyridin-3-yl)-4-oxo-1,4-dihydroquinoline-3-carboxylic acid]

Reference: US12662491B2 (Redona Therapeutics, Inc., priority 2020, dated 2026)
